Experimental data from patent US6699895B2, “2-aminothiazoline derivatives and process for preparing the same” (Aventis Pharma S.A., priority 2000, dated 2004).

melting point: 125 to 127 °C
Structure (SMILES): Cl.NC1=N[C@H](Cc2cccs2)CS1
